Molecular target: Disintegrin and metalloproteinase domain-containing protein 17 (Homo sapiens, UniProt P78536)
Assay: exosite inhibitors of ADAM17, dose response, biochemical (AID 743260)

Chain of Disintegrin and metalloproteinase domain-containing protein 17 (P78536 whole entry, the tested form may be a part): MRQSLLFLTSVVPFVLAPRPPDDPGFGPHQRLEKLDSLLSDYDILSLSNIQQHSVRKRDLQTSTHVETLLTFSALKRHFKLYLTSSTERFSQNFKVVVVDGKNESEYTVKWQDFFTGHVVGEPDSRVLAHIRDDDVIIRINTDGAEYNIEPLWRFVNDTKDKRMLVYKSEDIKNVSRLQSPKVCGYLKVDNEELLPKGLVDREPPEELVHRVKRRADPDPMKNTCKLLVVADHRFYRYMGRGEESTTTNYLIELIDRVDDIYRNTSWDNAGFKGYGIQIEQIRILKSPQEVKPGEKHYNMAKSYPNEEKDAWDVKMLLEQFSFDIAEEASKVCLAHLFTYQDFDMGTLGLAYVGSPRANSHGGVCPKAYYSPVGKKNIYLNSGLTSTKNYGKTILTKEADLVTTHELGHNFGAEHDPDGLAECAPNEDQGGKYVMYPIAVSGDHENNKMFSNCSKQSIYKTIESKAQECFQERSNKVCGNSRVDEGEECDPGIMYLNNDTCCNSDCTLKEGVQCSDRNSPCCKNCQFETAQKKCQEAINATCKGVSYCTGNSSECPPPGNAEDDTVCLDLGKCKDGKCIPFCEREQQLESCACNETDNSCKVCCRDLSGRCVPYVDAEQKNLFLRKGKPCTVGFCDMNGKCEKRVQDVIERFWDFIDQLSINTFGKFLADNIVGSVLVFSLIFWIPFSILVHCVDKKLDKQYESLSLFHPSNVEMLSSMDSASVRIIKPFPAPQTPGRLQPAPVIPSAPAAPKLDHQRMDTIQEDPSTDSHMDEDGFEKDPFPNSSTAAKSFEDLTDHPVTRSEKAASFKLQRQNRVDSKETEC

Row | SMILES | IC50
1 | CCOc1ccc(NC(=O)Cc2sc(=O)n(-c3ccccc3)c2O)cc1 | 5.73 µM
2 | Cn1c(-c2sccc2OCc2ccc(Cl)cc2Cl)n[nH]c1=S | 69.5 µM
3 | O=C(Cc1sc(=O)n(-c2ccccc2)c1O)Nc1ccccc1 [2-(2,4-diketo-3-phenyl-thiazolidin-5-yl)-N-phenyl-acetamide] | 46.7 µM
4 | COc1cccc(C2c3oc(CO)cc(=O)c3OC(=N)C2C#N)c1 (stereo not drawn) [2-Amino-6-hydroxymethyl-4-(3-methoxy-phenyl)-8-oxo-4,8-dihydro-pyrano[3,2-b]pyran-3-carbonitrile] | 69.5 µM
5 | COc1ccc(NC(=O)c2oc3ccccc3c2NC(=O)C(C)(C)C)cc1 [3-(2,2-dimethylpropanoylamino)-N-(4-methoxyphenyl)-1-benzofuran-2-carboxamide] | 69.5 µM
6 | CCOc1cc(C(c2c(C)[nH][nH]c2=O)c2c(C)[nH][nH]c2=O)ccc1O [4-[(3-ethoxy-4-hydroxyphenyl)-(3-methyl-5-oxo-1,2-dihydropyrazol-4-yl)methyl]-5-methyl-1,2-dihydropyrazol-3-one] | 69.5 µM
7 | Cc1cccc(NNC2=c3cc(Br)ccc3=NC2=O)c1 [5-bromo-3-[2-(3-methylphenyl)hydrazinyl]indol-2-one] | 69.5 µM
8 | C=c1cc(O)c(CN(C)C)c2oc(=Cc3ccco3)c(O)c12 [(2Z)-7-[(dimethylamino)methyl]-2-(furan-2-ylmethylidene)-6-hydroxy-4-methyl-1-benzofuran-3-one] | 17 µM
9 | CC1CCCN(CCCNC(=O)c2coc3nc4ccccc4nc23)C1 (stereo not drawn) [MLS000046706] | 69.5 µM
10 | O=C1OCCN1C(=O)C1=[N+](c2ccc(Br)cc2)N[C-](c2ccccc2)[C@H]1c1ccc([N+](=O)[O-])cc1 [SMR000327268] | 69.5 µM
11 | CC(=NNC(=N)Sc1cc(O)n(-c2ccc(Br)cc2)c1O)c1cccs1 [[1-(4-bromophenyl)-2,5-bis(oxidanylidene)pyrrolidin-3-yl] N''-(1-thiophen-2-ylethylideneamino)carbamimidothioate] | 69.5 µM
12 | CC(=NNC(=N)Sc1cc(O)n(-c2ccccc2)c1O)c1cccs1 [[2,5-bis(oxidanylidene)-1-phenyl-pyrrolidin-3-yl] N'-[(E)-1-thiophen-2-ylethylideneamino]carbamimidothioate] | 69.5 µM
13 | COC(=O)c1cccc(Cn2c(Cl)c(CN=Nc3ccccc3C)sc2=O)c1 [methyl 3-[[4-chloro-5-[[(2-methylphenyl)hydrazinylidene]methyl]-2-oxo-1,3-thiazol-3-yl]methyl]benzoate] | 69.5 µM

Reference: BindingDB's records for doi:10.7270/Q21J98DJ (The Scripps Research Institute Molecular Screening Center, 2014)
